Experimental data published in patent publication US12709603B2, “Crystalline forms of {2-[3-cyclohexyl-3-(trans-4-propoxy-cyclohexyl)-ureido]-thiazol-5-ylsulfanyl}-acetic acid and uses thereof” (vTv Therapeutics LLC, priority 2020, dated 2026).
“Also recorded” adds a separate entry of the source. Blank lines part the entries; values can stand above or below the compound they belong to.

What was measured:
[1] = Competitive slurry experiment in acetone among Form A, Form D, Form B and Form E, XRPD; format: physicochemical; details: for XRPD Results after competitive slurry of Forms A, D, B, E: acetone pre-saturated with Form A, 7 d, solids analyzed wet
Excerpt: At each condition, similar amounts of solids from the four forms/materials were slurried in pre-saturated solutions at the examined temperature conditions for 7 days; solids were then isolated and analyzed wet by XRPD.
(§1) XRPD patterns were collected with a PANalytical X'Pert PRO MPD or Empyrean diffractometer using an incident beam of Cu radiation produced using an Optix long, fine-focus source. An elliptically graded multilayer mirror was used to focus Cu Ku X-ray radiation through the specimen and onto the detector. Prior to the analysis, a silicon specimen (NIST SRM 640e) was analyzed to verify the observed position of the Si (111) peak is consistent with the NIST-certified position. A specimen of the sample was sandwiched between 3-μm-thick films and analyzed in transmission geometry. A beam-stop, short antiscatter extension, and antiscatter knife-edge were used to minimize the background generated by air. Soller slits for the incident and diffracted beams were used to minimize broadening from axial divergence. Diffraction patterns were collected using a scanning position-sensitive detector (X'Celerator) located 240 mm from the specimen and Data Collector software v. 5.5.

glucokinase = biological target: T1, glucokinase (Homo sapiens, UniProt P35557); details: cited from earlier work
T1 sequence (P35557 1-465): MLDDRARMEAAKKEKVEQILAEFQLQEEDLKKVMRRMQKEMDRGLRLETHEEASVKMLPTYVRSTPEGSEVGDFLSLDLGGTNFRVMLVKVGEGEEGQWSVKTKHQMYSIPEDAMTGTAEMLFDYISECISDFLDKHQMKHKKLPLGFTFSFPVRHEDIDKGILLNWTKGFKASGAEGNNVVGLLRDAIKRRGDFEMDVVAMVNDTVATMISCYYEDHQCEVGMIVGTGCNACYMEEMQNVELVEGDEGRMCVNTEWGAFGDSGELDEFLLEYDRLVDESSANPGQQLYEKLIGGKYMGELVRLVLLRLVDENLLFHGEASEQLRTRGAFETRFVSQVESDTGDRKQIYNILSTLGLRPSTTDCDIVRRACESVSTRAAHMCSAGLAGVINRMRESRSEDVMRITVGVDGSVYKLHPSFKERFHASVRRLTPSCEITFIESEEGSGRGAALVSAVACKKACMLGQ

[2] = Stable form and hydrate screen via slurry-trituration experiments; format: physicochemical; details: anh. EtOH, 55° C., 7 d, brown suspension
Method: Slurry triburation experiments target the stable forms, including stable solvates and hydrates.
The slurry-trituration experiments were conducted by stirring solids of Compound I in specified solvents and solvent mixtures at various temperatures for 7 days (elevated temperature) or 14-18 days (ambient and sub-ambient temperatures). A summary of experimental conditions and results is detailed in Table 13.
as §1

[3] = Polymorph screen (evaporation, cooling, slurry, solvent/anti-solvent); format: physicochemical; details: EtOAc/HFIPA (36:64), stirred at 60° C. 1 d, FC to ice/water bath, FE w/N2 purge
Excerpt: Solids of Compound I unless noted otherwise, was used as the starting material. Materials produced in the study were utilized for selected experiments.
Solutions of starting material were allowed to partially evaporate or evaporate to dryness at ambient or elevated temperature from open vials for fast evaporation (FE) or from vials covered with aluminum foil with pin holes for slow evaporation (SE). Prior to evaporation, solutions were filtered at ambient or elevated temperature using 0.2 μm nylon filters.
Solutions of starting material were prepared in specified solvents at elevated temperature using a hot plate for heating. These were typically hot-filtered through a 0.2 μm nylon filter into warm receiving vials. […]
XRPD patterns were collected with a PANalytical X'Pert PRO MPD or Empyrean diffractometer using an incident beam of Cu radiation produced using an Optix long, fine-focus source. […] Prior to the analysis, a silicon specimen (NIST SRM 640e) was analyzed to verify the observed position of the Si (111) peak is consistent with the NIST-certified position. A specimen of the sample was sandwiched between 3-μm-thick films and analyzed in transmission geometry. […]

[4] = Drying of selected materials under vacuum at 45° C., solid form checked by XRPD; format: physicochemical
Method: as §1

SMILES: CCCO[C@H]1CC[C@H](N(C(=O)Nc2ncc(SCC(=O)O)s2)C2CCCCC2)CC1 [Form A, {2-[3-cyclohexyl-3-(trans-4-propoxy-cyclohexyl)-ureido]-thiazol-5-ylsulfanyl}-acetic acid]
XRPD Results after competitive slurry of Forms A, D, B, E ([1]; 2-8° C.): Form A
XRPD Results after competitive slurry of Forms A, D, B, E ([1]; 45° C.): Form A
XRPD Results after competitive slurry of Forms A, D, B, E ([1]; RT): Form A
Relative stability among anhydrous forms A, B, D, E ([1]; within 2-8° C. to 45° C., based on competitive slurries): likely the most stable form

SMILES: CCCO[C@H]1CC[C@H](N(C(=O)Nc2ncc(SCC(=O)O)s2)C2CCCCC2)CC1 [Compound I, {2-[3-cyclohexyl-3-(trans-4-propoxy-cyclohexyl)-ureido]-thiazol-5-ylsulfanyl}-acetic acid]
Glycemic control (glucokinase; oral, liver selective glucokinase activator): improves glycemic control
Adverse effects (hypoglycemia, dyslipidemia/increased TG, liver glycogen and TG, loss of efficacy) (glucokinase; therapeutically relevant doses, compared with other GK activators): does not cause similar adversarial effects; also recorded: may not induce hypoglycemia, dyslipidemia, or pathological increases of glycogen and TG in the liver
XRPD Result after slurry-trituration [2]: decomposed
XRPD Result after polymorph screen experiment [3]: decomposed

SMILES: CCCO[C@H]1CC[C@H](N(C(=O)Nc2ncc(SCC(=O)O)s2)C2CCCCC2)CC1 [Form C, {2-[3-cyclohexyl-3-(trans-4-propoxy-cyclohexyl)-ureido]-thiazol-5-ylsulfanyl}-acetic acid]
Solid form change upon drying / desolvation [4]: desolvates into Form D
XRPD Results after drying ([4]; vacuum/45° C./1 h): Compound I Form D
XRPD Results after drying ([4]; vacuum/45° C./1 d, listed as Compound I Form C): Compound I Form D ±

SMILES: CCCO[C@H]1CC[C@H](N(C(=O)Nc2ncc(SCC(=O)O)s2)C2CCCCC2)CC1 [Form F, {2-[3-cyclohexyl-3-(trans-4-propoxy-cyclohexyl)-ureido]-thiazol-5-ylsulfanyl}-acetic acid]
Solid form change upon drying / desolvation [4]: converts to Form D upon drying
XRPD Results after drying ([4]; vacuum/45° C./3 d, listed as Compound I Form F): Compound I Form D

SMILES: CCCO[C@H]1CC[C@H](N(C(=O)Nc2ncc(SCC(=O)O)s2)C2CCCCC2)CC1 [Compound I Material G, {2-[3-cyclohexyl-3-(trans-4-propoxy-cyclohexyl)-ureido]-thiazol-5-ylsulfanyl}-acetic acid]
XRPD Results after drying ([4]; vacuum/45° C./1 d): disordered

SMILES: CCCO[C@H]1CC[C@H](N(C(=O)Nc2ncc(SCC(=O)O)s2)C2CCCCC2)CC1 [Compound I Form E + minor Form A, {2-[3-cyclohexyl-3-(trans-4-propoxy-cyclohexyl)-ureido]-thiazol-5-ylsulfanyl}-acetic acid]
XRPD Results after drying ([4]; vacuum/45° C./1 d): Compound I Form B +

Second part, led by results:

Solid form change upon drying / desolvation [4]: become disordered upon drying
XRPD Results after drying ([4]; vacuum/45° C./3 d, listed as Compound I Form G): disordered
SMILES: CCCO[C@H]1CC[C@H](N(C(=O)Nc2ncc(SCC(=O)O)s2)C2CCCCC2)CC1 [Form G, {2-[3-cyclohexyl-3-(trans-4-propoxy-cyclohexyl)-ureido]-thiazol-5-ylsulfanyl}-acetic acid]

Solid form change upon drying / desolvation [4]: become disordered upon drying
SMILES: CCCO[C@H]1CC[C@H](N(C(=O)Nc2ncc(SCC(=O)O)s2)C2CCCCC2)CC1 [Form H, {2-[3-cyclohexyl-3-(trans-4-propoxy-cyclohexyl)-ureido]-thiazol-5-ylsulfanyl}-acetic acid]

XRPD Results after drying ([4]; vacuum/45° C./1 d, listed as Compound I Form I): Compound I Form B
SMILES: CCCO[C@H]1CC[C@H](N(C(=O)Nc2ncc(SCC(=O)O)s2)C2CCCCC2)CC1 [Form I, {2-[3-cyclohexyl-3-(trans-4-propoxy-cyclohexyl)-ureido]-thiazol-5-ylsulfanyl}-acetic acid]
Solid form change upon drying / desolvation [4]: converts to Form E or solids similar to Form E upon drying
